Where two headings read alike, the source gives them in different places.

One data set has as its target 5FW-BPTF bromodomain (Homo sapiens, UniProt Q12830). Kind of data set: Protein-observed 19F NMR. The format is binding. Particulars: for BPTF 19F NMR: 100 μM compound, 50 μM Brd4 and BPTF, 1% DMSO; for selectivity between BPTF and Brd4 by PrOF NMR (in words): dual screen.
For data set [1], the target named is 5FW-Brd4 (first bromodomain of Brd4) (Homo sapiens, UniProt O60885). Description: Protein-observed 19F NMR. Particulars: for Brd4 19F NMR: 100 μM compound, 50 μM Brd4 and BPTF, 1% DMSO; for binding to Brd4 (in words): PrOF NMR. The format is binding.
The nature of the next data set: Cell viability assay. The format is cell-based, human. Particulars: human, HEK 293T cells.
For a further data set, the system named is HEK 293T cells. Description: Cell viability assay. It is filed as cell-based, human. Particulars: 24 hours at 3 and 10 μM.
Data set [2] has as its system BPTF-regulatory region upstream of Mobkl3 promoter in Eph4 cells. Kind of data set: pGL3_Mobkl3p luciferase reporter assay. The format is cell-based, mouse. Particulars: 5 μM for 12 hours, pGL3_Mobkl3p vector. On the technique in general: A reporter such as luciferase makes a cellular process visible.
The conditions of data set [3]: read-out: EC50 in five cellular assays; ChEMBL search; targets unknown; cited from earlier work.
The test system of a further data set is hepatocytes. Particulars: 10 μM compound; cited from earlier work.
For data set [4], the target named is T1, Brd4 (Homo sapiens, UniProt O60885). Description: Fluorescence anisotropy competition against bound BODIPY-BI2536. It is filed as binding. A general note: Polarisation of emitted light reports the rotation of a fluorescent probe.
The target in data set [5] is T1, Brd4. Description: Differential scanning fluorimetry. The format is binding. Particulars: DSF, 100 μM inhibitor, 4 μM Brd4. (Differential scanning fluorimetry follows unfolding on heating by fluorescence.)

Usually viability stands for a per cent measure of how many cells are alive, often set against a control. Lower therefore signals more harm to the cells. What is called EC50 is the concentration at which the effect is half-maximal. Turning to `COC(=O)c1cccc(NC(=O)NC2CCN(c3ccnc(Nc4ccc(F)cc4)n3)C2)c1` (stereo not drawn) [AU1], the “BPTF 19F NMR” value on 5FW-BPTF bromodomain is recorded as “+++”. Also, in [1], the “Brd4 19F NMR” value is “-” and the “binding to Brd4 (in words)” value is listed as “No binding is detected”. The same compound registered a viability at 48 h, 10 µM in “Cell viability assay” of 76%. In addition, the “cellular toxicity against HEK 293T cells” value in the data set with HEK 293T cells is “no cellular toxicity”. Also, in [2], the “loss of luciferase activity” value was ~ 4 fold. Also, in [3], the EC50 was 500 nM. For the same compound, the “cellular toxicity in hepatocytes” value in the data set on hepatocytes was “did not detect cellular toxicity”.
On to `CCn1c(-c2nonc2N)nc2c(-c3ccccc3)ncc(OCCCN)c21` [GSK260205A], for which the “BPTF 19F NMR” value at 5FW-BPTF bromodomain is “+++”. Also, in data set [1], the “Brd4 19F NMR” value was “+++”.
For `CCn1c(-c2nonc2N)nc2c(C#CCN)ncc(OCCCN)c21` [GSK561866B], on 5FW-BPTF bromodomain, the “BPTF 19F NMR” value was “++ (a resonance from the protein in question has been perturbed by 2 standard deviations in either chemical shift or linewidth)”; the “selectivity between BPTF and Brd4 by PrOF NMR (in words)” value (from here on “selectivity between BPTF and Brd4”) is given as “highly selective for BPTF”. In addition, the “Brd4 19F NMR” value in data set [1] was “-”.
With `O=C(Nc1ccc2c(c1)OCO2)NC1CCN(c2ccnc(Nc3ccc(F)cc3)n2)C1` (stereo not drawn) [GSK1379724A], the “binding to BPTF (in words)” value at 5FW-BPTF bromodomain (PrOF NMR) is on record as “unable to bind”. Further, the “binding to Brd4 (in words)” value in data set [1] is “unable to bind”.
For `COC(=O)c1cccc(NC(=O)NC2CCN(c3ccnc(Nc4ccc(OC)cc4)n3)C2)c1` (stereo not drawn) [GSK1379746A], at 5FW-BPTF bromodomain, the “BPTF 19F NMR” value is listed as “+++”; the “selectivity between BPTF and Brd4” value was “completely selective for BPTF over Brd4”. In [1], the “Brd4 19F NMR” value was “-”.
On to `COC(=O)c1cccc(NC(=O)NC2CCN(c3ccnc(Nc4cc(OC)c(OC)c(OC)c4)n3)C2)c1` (stereo not drawn) [GSK1379767A], for which the “BPTF 19F NMR” value at 5FW-BPTF bromodomain is reported as “+++”. In [1], the “Brd4 19F NMR” value was “+++”.
Regarding `Oc1ccc(-c2nc(-c3ccncc3)c(-c3ccc(F)cc3)[nH]2)cc1` [SB-202190, reference compound], the “selectivity between BPTF and Brd4” value at 5FW-BPTF bromodomain is “selective for Brd4 over BPTF”.
Broadly, the Ki is the equilibrium dissociation constant of an inhibitor or competing ligand from its target. Consider `CCc1ccc(Oc2nccc(-c3c(-c4ccc(F)cc4)ncn3C3CCNCC3)n2)cc1` [SB-242719], for which the “BPTF 19F NMR” value at 5FW-BPTF bromodomain is “+ (a resonance from the protein in question has been perturbed by 1 standard deviation in either chemical shift or linewidth)”. The “Brd4 19F NMR” value in data set [1] is recorded as “+++”. This compound also displayed a Ki at Brd4 [4] of 13000 ± 3000 nM. At Brd4 [4] (relative to SB-284851-BT (1)), this compound came in with a fold weaker affinity of 40 fold.
For the compound `CN(C)CCOc1ccc(-c2nc(-c3ccncc3)c(-c3ccc4c(c3)CC/C4=N\O)[nH]2)cc1` [SB-590885-AAE], the “BPTF 19F NMR” value at 5FW-BPTF bromodomain is given as “-”. Besides, the “Brd4 19F NMR” value in data set [1] is “+++”. In addition, the “Brd4 ΔTm” value on Brd4 [5] was determined as 5.1 ± 0.4 °C. Further, the Ki at Brd4 [4] (read-out: Brd4 FP Ki, competition with BODIPY-BI2536, 156 nM Brd4) is 400 ± 230 nM.
Regarding `Cc1cnc(Nc2ccc(OCCN3CCCC3)cc2)nc1Nc1cccc(S(=O)(=O)NC(C)(C)C)c1` [TG-101348, reference compound], at 5FW-BPTF bromodomain, the “selectivity between BPTF and Brd4” value is on record as “selective for Brd4 over BPTF”.

Source of the values: publication PMC4858447 (ACS chemical biology, 2015).
